From the supplement of paper PMC12592484

Assays:
Assay in all cases: drug sensitivity score (DSS2, normalised partial AUC of dose-response, 72 h CellTiter-Glo viability) (DSS (dimensionless)); higher = more sensitive (stronger growth inhibition / cytotoxicity); extreme values may be limits of the assay
CAF#2 = tested on: CAF#2 (primary prostate cancer-associated fibroblasts of iCAF-like type)
In short: (§1)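 The drug sensitivity score reported here is a partial area under the fitted logistic dose–response curve, divided by the log of the curve's upper asymptote and computed in BREEZE; higher values denote greater sensitivity. Low-passage primary prostate cancer-associated fibroblasts, PF179T, WPMY-1, LNCaP and 22Rv1 cells were seeded into 384-well plates preloaded with compounds at five doses across a 10,000-fold range. CellTiter-Glo 2.0 luminescence gave viability at 72 h, scaled to vehicle and positive-control wells.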

22Rv1 = tested on: 22Rv1
In short: as §1

WPMY-1 = tested on: WPMY-1
In short: as §1

CAF#7 = tested on: CAF#7 (primary prostate cancer-associated fibroblasts of myCAF-like type)
In short: as §1

CAF#4 = tested on: CAF#4 (primary prostate cancer-associated fibroblasts of iCAF-like type)
In short: as §1

CAF#3 = tested on: CAF#3 (primary prostate cancer-associated fibroblasts of myCAF-like type)
In short: as §1

CAF#1 = tested on: CAF#1 (primary prostate cancer-associated fibroblasts of myCAF-like type)
In short: as §1

PF179T = tested on: PF179T
In short: as §1

LNCAP = tested on: LNCAP
In short: as §1

CAF#6 = tested on: CAF#6 (primary prostate cancer-associated fibroblasts of iCAF-like type)
In short: as §1

CAF#5 = tested on: CAF#5 (primary prostate cancer-associated fibroblasts of myCAF-like type)
In short: as §1

| SMILES | drug sensitivity score (CAF#2) | drug sensitivity score (22Rv1) | drug sensitivity score (WPMY-1) | drug sensitivity score (CAF#7) | drug sensitivity score (CAF#4) | drug sensitivity score (CAF#3) | drug sensitivity score (CAF#1) | drug sensitivity score (PF179T) | drug sensitivity score (LNCAP) | drug sensitivity score (CAF#6) | drug sensitivity score (CAF#5) |
| --- | --- | --- | --- | --- | --- | --- | --- | --- | --- | --- | --- |
| C[C@@H](NC(=O)c1ncnc(N)c1Cl)c1ncc(C(=O)Nc2cc(C(F)(F)F)c(Cl)cn2)s1 [TAK-580] (tested concentration range 1-10000 nM) | 0 | 0 | 0.5 | 0.3 | 2.3 | 0.5 | 0 | 0 | 0.2 | 0 | 0 |
| Cc1cccc(-c2[nH]c(CNc3ccccc3F)nc2-c2ccc3ncnn3c2)n1 [TEW-7197] (tested concentration range 0.2-2500 nM) | 0 | 0 | 0 | 0 | 0 | 0.5 | 0.5 | 0 | 0 | 0 | 0.3 |
| Nc1nc(NC2CC2)cc(-c2cccc(Cl)c2Cl)n1 [TH588] (tested concentration range 2.5-25000 nM) | 2.7 | 4.2 | 7.9 | 0.5 | 2.7 | 3 | 2 | 2.8 | 6.5 | 1.9 | 1.7 |
| Clc1ccccc1C(c1ccccc1)(c1ccccc1)n1cccn1 [TRAM-34] (tested concentration range 0.1-1000 nM) | 0.1 | 0 | 0 | 0 | 0 | 0 | 0.8 | 0 | 0 | 0 | 0 |
| CC(=O)Nc1ccc(C(=O)Nc2ccccc2N)cc1 [Tacedinaline] (tested concentration range 0.1-1000 nM) | 2.3 | 0.1 | 0 | 0.6 | 0.5 | 3.3 | 1.8 | 0.9 | 0.6 | 0 | 2.5 |
| C=CC[C@@H]1/C=C(\C)C[C@H](C)C[C@H](OC)[C@H]2O[C@@](O)(C(=O)C(=O)N3CCCC[C@H]3C(=O)O[C@H](/C(C)=C/[C@@H]3CC[C@@H](O)[C@H](OC)C3)[C@H](C)[C@@H](O)CC1=O)[C@H](C)C[C@@H]2OC [Tacrolimus] (tested concentration range 1-10000 nM) | 2.7 | 2.3 | 1 | 2 | 0 | 0.2 | 0.9 | 0 | 6.8 | 2.3 | 0.9 |
| Cn1ncnc1[C@H]1c2n[nH]c(=O)c3cc(F)cc(c23)N[C@@H]1c1ccc(F)cc1 [Talazoparib] (tested concentration range 0.1-1000 nM) | 8 | 11.5 | 4 | 2.9 | 3.4 | 2.1 | 4.9 | 11.2 | 15.3 | 1.6 | 6.2 |
| C[C@@H]1CN(Cc2ccc(F)cc2)[C@@H](C)CN1C(=O)c1cc2c(C(=O)C(=O)N(C)C)cn(C)c2cc1Cl [Talmapimod] (tested concentration range 1-10000 nM) | 0 | 0 | 0 | 0 | 0 | 0 | 0 | 0 | 1.9 | 0 | 0 |
| COc1cc(Nc2ncc(F)c(Nc3ccc4c(n3)NC(=O)C(C)(C)O4)n2)cc(OC)c1OC [Tamatinib] (tested concentration range 1-10000 nM) | 9.7 | 0 | 6 | 3.2 | 5.8 | 1.7 | 10.9 | 8 | 0.8 | 0.8 | 6.4 |
| CC/C(=C(\c1ccccc1)c1ccc(OCCN(C)C)cc1)c1ccccc1 [Tamoxifen] (tested concentration range 1-10000 nM) | 1.3 | 3.7 | 5 | 1.9 | 1.1 | 2.5 | 0.1 | 0 | 4.1 | 2.6 | 2 |
| O[C@H]1CC[C@H](Nc2ncc3nc(Nc4c(F)cc(F)cc4F)n([C@H]4CCOC4)c3n2)CC1 [Tanzisertib] (tested concentration range 1-10000 nM) | 0 | 0 | 0 | 0 | 0 | 3.3 | 0 | 0 | 1.3 | 0.2 | 0 |
| COc1cccc2c1c(O)c(C(=O)N(C)c1ccc(C(F)(F)F)cc1)c(=O)n2C [Tasquinimod] (tested concentration range 1-10000 nM) | 3.5 | 0 | 0 | 5.8 | 0 | 0 | 0.3 | 0.4 | 0 | 4.4 | 3.4 |
| CCN(c1cc(-c2ccc(CN3CCOCC3)cc2)cc(C(=O)NCc2c(C)cc(C)[nH]c2=O)c1C)C1CCOCC1 [Tazemetostat] (tested concentration range 1-10000 nM) | 1.8 | 0 | 0 | 0 | 0.4 | 1.2 | 1 | 0 | 1.9 | 0.7 | 0.9 |
| Cn1nnc2c(C(N)=O)ncn2c1=O [Temozolomide] (tested concentration range 10-100000 nM) | 0 | 0 | 0 | 0 | 0 | 0 | 0 | 0 | 0 | 0 | 0 |
| CO[C@H]1C[C@@H]2CC[C@@H](C)[C@@](O)(O2)C(=O)C(=O)N2CCCC[C@H]2C(=O)O[C@H]([C@H](C)C[C@@H]2CC[C@@H](OC(=O)C(C)(CO)CO)[C@H](OC)C2)CC(=O)[C@H](C)/C=C(\C)[C@@H](O)[C@@H](OC)C(=O)[C@H](C)C[C@H](C)/C=C/C=C/C=C/1C [Temsirolimus] (tested concentration range 0-100 nM) | 10.1 | 16.7 | 6.6 | 6 | 9.9 | 4 | 10.6 | 9.8 | 11 | 5.5 | 11.8 |
| COc1cc([C@@H]2c3cc4c(cc3[C@@H](O[C@@H]3O[C@@H]5CO[C@@H](c6cccs6)O[C@H]5[C@H](O)[C@H]3O)[C@H]3COC(=O)[C@H]23)OCO4)cc(OC)c1O [Teniposide] (tested concentration range 1-10000 nM) | 0 | 0 | 0 | 0 | 0 | 0 | 0 | 0 | 0 | 0 | 0 |
| CN1CCC(COc2cnc(-c3cccc(Cn4nc(-c5cccc(C#N)c5)ccc4=O)c3)nc2)CC1 [Tepotinib] (tested concentration range 0.1-1000 nM) | 3.4 | 0 | 0.7 | 0 | 0.5 | 0 | 0 | 2.4 | 0 | 0 | 3 |
| O=C1CCC(N2C(=O)c3ccccc3C2=O)C(=O)N1 (stereo not given) [Thalidomide] (tested concentration range 1-10000 nM) | 0 | 0 | 0 | 0 | 0 | 0 | 0 | 0 | 0 | 0 | 0 |
| Nc1nc2[nH]cnc2c(=S)[nH]1 [Thioguanine] (tested concentration range 1-10000 nM) | 3.6 | 8.8 | 11.8 | 4.9 | 2.9 | 0.2 | 1.1 | 4.9 | 0.4 | 3.7 | 1.8 |
| O=c1sn(-c2cccc3ccccc23)c(=O)n1Cc1ccccc1 [Tideglusib] (tested concentration range 0.3-3000 nM) | 0.8 | 0 | 0 | 1.6 | 0 | 0 | 0 | 0 | 0 | 2.3 | 0 |
| Cn1cncc1[C@@](N)(c1ccc(Cl)cc1)c1ccc2c(c1)c(-c1cccc(Cl)c1)cc(=O)n2C [Tipifarnib] (tested concentration range 1-10000 nM) | 7.6 | 13.8 | 9.8 | 1.4 | 7 | 7.3 | 2.1 | 4.6 | 14.8 | 3.2 | 4.8 |
| COc1cc2nccc(Oc3ccc(NC(=O)Nc4cc(C)on4)c(Cl)c3)c2cc1OC [Tivozanib] (tested concentration range 1-10000 nM) | 7.7 | 1.6 | 4.6 | 6 | 4.6 | 6 | 6.2 | 3 | 4.8 | 4.2 | 6.9 |
| C[C@@H]1CCN(C(=O)CC#N)C[C@@H]1N(C)c1ncnc2[nH]ccc12 [Tofacitinib] (tested concentration range 0.5-5000 nM) | 1 | 0 | 0 | 0.1 | 0 | 1.6 | 1.3 | 0 | 0 | 0 | 0.4 |
| CC[C@@]1(O)C(=O)OCc2c1cc1n(c2=O)Cc2cc3c(CN(C)C)c(O)ccc3nc2-1 [Topotecan] (tested concentration range 1-10000 nM) | 10.3 | 24.5 | 14.6 | 5.3 | 8.1 | 4.8 | 8.9 | 8.7 | 22.7 | 4.8 | 6.9 |
| CC(C)C[C@@H](C(=O)N[C@H](C(=O)OC1CCCC1)c1ccccc1)[C@H](O)C(=O)NO [Tosedostat] (tested concentration range 1-10000 nM) | 0.6 | 4.4 | 9.3 | 5.1 | 0 | 1 | 0 | 1.2 | 8.6 | 2.7 | 3.5 |
